# Measured values taken from US20030143189A1, “Therapy for topical diseases” (priority 2001, published 2003).
# Tested on: plantar warts
# Assay: Treatment of plantar warts on a patient's feet with in situ polymeric film versus freezing
# Format: in vivo, human
# Description: A patient presents to a dermatologist with two similar plantar warts on the soles of their left and right feet. The wart on the right foot is treated by freezing with liquid nitrogen.
smiles,measurement,setting,value
N#N [liquid nitrogen],pain caused by the treatment (freeze burn),plantar wart on sole of foot,makes walking on the foot painful for several days
same,time until the wart resolves,"plantar wart on sole of foot, film re-applied every 3-4 days",3 weeks
same,return of the wart after resolution,"plantar wart, film treatment continued two weeks after resolution",has returned after two months
